From patent US5716986A, “Oxaindene derivatives and process for the preparation thereof” (priority 1995, dated 1998)

Legend:
[1] = test system: Ear oedema induced by arachidonic acid in mice; assay: Ear oedema induced by arachidonic acid in mice; type: in vivo, NMRI strain); conditions: female NMRI mice, topical, 30 minutes before arachidonic acid (3 mg), measured 60 minutes later
Procedure: 3. Ear oedema induced by arachidonic acid in mice
Inflammation of ear was induced by arachidonic acid using a modified version of the procedure described by Young et al. [Young, J. M., Spires, D. A., Bedord, C. J., Wagner, B., Ballaron, S. J., De Young, L. M.: The mouse ear inflammatory response to topical arachidonic acid, J. Invest. Dermatol. 82, 67-371 (1984)]. The experiments were carried out in female mice from the NMRI strain weighing 25 to 30 g (8 animals/groups). Drugs were applied topically in acetone or ethanol by an automatic pipette in 10 μl volumes to both the inner and outer surfaces of the ear. 30 minutes after drug or vehicle administration both sides of the left ear were brushed with 3 mg of arachidonic acid in 20 μl of acetone and both sides of the right ear were treated with 20 μl of acetone only. 60 minutes later the animals were killed by aether, then a disk of 7 mm diameter was cut off both ears. The mass of each disk was measured by an analytical scale and the mean of the difference of the left and right ears was calculated for every group. ID50 values were determined by plotting the log-dose versus percentage response as compared to vehicle-treated animals.

[2] = target: T1, 5-lipoxygenase (5-LO) enzyme (Homo sapiens, UniProt P09917); assay: Measurement of 5-LO enzyme activity in cell free system prepared from human leukocytes (direct); type: biochemical; conditions: human polymorphonuclear leukocytes, 0.02 mM arachidonic acid, pH 7.5, 37° C., 5 minutes, read-out: 5-lipoxygenase enzyme inhibition, direct, IC50
T1 construct: the enzyme in the cytosol was partially purified by ammonium sulphate fractionation; endogenous in cells; host or cells: human polymorphonuclear leukocytes (sonicated, cytosol, ammonium sulphate fraction)
T1 sequence (P09917 1-674): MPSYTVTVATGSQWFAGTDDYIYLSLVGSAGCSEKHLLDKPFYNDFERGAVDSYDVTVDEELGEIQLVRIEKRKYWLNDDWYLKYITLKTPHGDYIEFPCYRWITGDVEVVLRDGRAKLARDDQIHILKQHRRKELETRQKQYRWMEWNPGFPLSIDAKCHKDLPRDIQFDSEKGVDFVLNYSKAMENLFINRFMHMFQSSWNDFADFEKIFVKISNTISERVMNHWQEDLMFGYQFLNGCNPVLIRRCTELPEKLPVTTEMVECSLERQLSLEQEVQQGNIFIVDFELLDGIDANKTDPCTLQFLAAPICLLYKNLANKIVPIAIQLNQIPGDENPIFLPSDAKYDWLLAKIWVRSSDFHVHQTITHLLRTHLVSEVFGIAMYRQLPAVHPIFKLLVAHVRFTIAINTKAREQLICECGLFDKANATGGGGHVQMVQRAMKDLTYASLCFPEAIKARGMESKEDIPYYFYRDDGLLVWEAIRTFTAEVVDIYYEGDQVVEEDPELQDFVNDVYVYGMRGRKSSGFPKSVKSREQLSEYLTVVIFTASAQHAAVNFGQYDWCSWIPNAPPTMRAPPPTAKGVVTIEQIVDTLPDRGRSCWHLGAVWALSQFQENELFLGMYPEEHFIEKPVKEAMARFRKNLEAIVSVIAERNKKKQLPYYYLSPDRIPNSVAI
Procedure: 1. Measurement of 5-LO enzyme activity in cell free system prepared from human leukocytes
The enzyme activity was measured according to the modified method of Ochi et al. [K. Ochi, T. Yoshimoto, S. Yamamoto, K. Taniguchi, T. Miyamoto: Arachidonate 5-lipoxygenase of guinea pig peritoneal polymorphonuclear leukocytes, J. Biol. Chem. 258, 5754-5758 (1983)]. The principle of the method is as follows: in in vitro systems, during the reaction catalysed by 5-LO 5-hydroxyperoxy-6,8,11,14-eicosatetraenoic acid (5-HPETE) is formed from arachidonic acid, then it is transformed to 5-hydroxy-6,8,11,14-eicosatetraenoic acid (5-HETE). Both 5-HPETE and 5-HETE have absorption maximum at 236 nm, therefore it is possible to determine the activity of 5-LO enzyme by measuring the change of absorption at 236 nm. 5-LO was prepared from human polymorphonuclear leukocytes by a simple purification procedure. The cells were washed and lysed by a sonic disintegrator. The lysate was centrifuged and the enzyme in the cytosol was partially purified by ammonium sulphate fractionation (the enzyme precipitates at 50% saturation). The reaction mixture (50 mM tris-HCl pH=7.5, 2mM CaCl2, 0.1 mM ATP, 0.02 mM arachidonic acid) was incubated at 37° C. for 5 minutes. The reaction was started with the addition of arachidonic acid and stopped by the addition of 10 mM of citric acid. The thus-obtained 5-HPETE and 5-HETE were extracted with a 6:4 mixture of diethyl ether and hexane and the absorption of the organic phase was measured by spectrophotometry at […].

PAF lethality in mice = assay: PAF induced anaphylactic shock test in mice (PAF lethality); type: in vivo; conditions: Mus musculus, ip, 1 h; male NMRI mice, intraperitoneal, 30 minutes before intravenous PAF 100 μg/kg, mortality at one hour; read-out: PAF lethality in mice ID50
Procedure: 4. PAF induced anaphylactic shock test in mice
A modification of the method of Young et al. [Young, J. M., Maloney, P. J., Jubb, S. N. and Clark, J. S.: Pharmacological investigation of the mechanism of platelet-activating factor mortality in the mouse, Prostaglandins 30, 545-551 (1985)] was used. The experiments were carried out in male NMRI mice weighing 20-25 g (10 animals/group). The test compounds were suspended in 0.4% methyl cellulose and administered intraperitoneally in a volume of 10 ml/kg. The mice of the control group received only vehicle. 30 minutes later the animals received intravenous PAF in a dose of 100 μg/kg (5 ml/kg). Mortality was determined one hour after PAF administration. Every experiment was repeated three times (n=30). The ratio of mortality of the treated animals was compared to that of the control mice. ID50 values were calculated by linear regression analysis.

[3] = target: T1, 5-lipoxygenase (5-LO) enzyme; assay: Determination of 5-LO enzyme activity of human leukocytes by measuring their leukotriene B4 production (whole cell); type: cell-based; conditions: human PMN leukocytes, LTB4 release, ionophore A-23187 0.001 mM, pH 7.2, 37° C., 15 minutes, RIA; read-out: 5-lipoxygenase enzyme inhibition, in whole cell, IC50
Description: 2. Determination of 5-LO enzyme activity of human leukocytes by measuring their leukotriene B4 production
The method of Mia et al. was applied [H. Mita, Y. Yui and T. Shida: Effect of AA-861, a 5-lipoxygenase inhibitor on leukotriene synthesis in human polymorphonuclear leukocytes and on cyclooxygenase and 12-lipoxygenase activities in human platelets, Allergy 41, 493-498, (1986)]. The principle of the experiment is as follows: the calcium ionophore A-23187 induces the synthesis and the release of LTB4 by human polymorphonuclear leukocytes. The amount of LTB4 released into the incubation medium reflects the 5-LO enzyme activity of the intact cells. The incubation medium was Hank's balanced medium (HBBS) supplemented with 17 mM of Tris-HCl (pH 7.2), 1.22 mM of CaCl2, 1 mM of MgCl2, 0.001 mM of A-23187 and 10^4 PMN leukocyte per ml reaction mixture. The reaction was started with the addition of ionophore then incubated at 37° C. for 15 minutes. The reaction was stopped by adding 5 mM of EDTA and by chilling the samples in an ice bath. The samples were centrifuged and the amount of LTB4 in the supernatant was determined by radioiimmunoassay (RIA).

Row | SMILES | Arachidonic acid ear oedeme in mice ID50 [1] | IC50 [2] | ED50 (PAF lethality in mice) | IC50 [3]
1 | COc1cc2c(cc1O)[C@@H]1CCC[C@@H]1O2 (relative stereo) [Example 6, cis-6-Methoxy-2,3,3a,8a-tetrahydro-1H-8-oxacyclopenta[a]indene-5-ol] | 0.23 mg/ear | 1200 nM | 100 mg/kg | 
2 | CCOc1cc2c(cc1O)[C@@H]1CCC[C@@H]1O2 (relative stereo) [Example 8, cis-6-Ethoxy-2,3,3a,8a-tetrahydro-1H-8-oxa-cyclopenta[a]indene-5-ol] |  | 490 nM | 45 mg/kg | 
3 | Cc1c(O)cc2c(c1C)O[C@H]1C=CC[C@@H]21 (relative stereo) [Example 3, cis-6,7-Dimethyl-3a,8a-dihydro-3H-8-oxacyclopenta[a]indene-5-ol] |  | 5500 nM |  | 500 nM
4 | O=C1CCN(c2ccccc2)N1 [Phenidone, 1-phenyl-3-pyrazolidinone, reference compound] | 0.18 mg/ear |  | 14.2 mg/kg | 
5 | Cc1c(O)cc2c(c1C)O[C@H]1CCC[C@@H]21 (relative stereo) [Example 4, cis-6,7-Dimethyl-2,3,3a,8a-tetrahydro-1H-8-oxacyclopenta[a]indene-5-ol] |  | 1200 nM | 65.2 mg/kg | 300 nM
6 | Cc1c(C)c2c(c(C)c1O)C1CCCCCC1O2 (stereo not drawn) [Example 10, 1,2,4-Trimethyl-4b,6,7,8,9,9a-hexahydro-5H-10-oxabenzo[a]azulene-3-ol] | 0.16 mg/ear | 99 nM | 22.5 mg/kg | 70 nM
7 | Cc1c(C)c2c(c(C)c1O)[C@@H]1CCC[C@@H]1O2 (relative stereo) [Example 2, cis-4,6,7-Trimethyl-2,3,3 a,8a-tetrahydro-1H-8-oxacyclopenta[a]indene-5-ol] | 0.18 mg/ear | 390 nM | 16.2 mg/kg | 50 nM
8 | Cc1c(C)c2c(c(C)c1O)[C@@H]1CC=C[C@@H]1O2 (relative stereo) [Example 1, cis-4,6,7-Trimethyl-3a,8a-dihydro-3H-8-oxacyclopenta[a]indene-5-ol] |  | 74 nM | 51.7 mg/kg | 680 nM
9 | CC1=C(C)C(=O)C(CCCCC#CCCCC#CCO)=C(C)C1=O [AA-861, 2-(12-hydroxy-5,10-dodecadiinyl)-3,5,6-trimethyl-p-benzoquinone, reference compound] | 0.13 mg/ear | 4100 nM | 58.9 mg/kg | 1100 nM
10 | COc1cc2c(cc1O)[C@@H]1CC=C[C@@H]1O2 (relative stereo) [Example 5, cis-6-Methoxy-3a,8a-dihydro-3H-8-oxacyclopenta[a]indene-5-ol] | 0.18 mg/ear | 2700 nM |  | 300 nM
11 | Cc1c(C)c2c(c(C)c1O)[C@H]1CCC=C[C@H]1O2 (relative stereo) [Example 23, cis-1,3,4-Trimethyl-5a,8,9,9a-tetrahydrodibenzofurane-2-ol] |  | 540 nM | 23.2 mg/kg | 140 nM
12 | CCOc1cc2c(cc1O)[C@@H]1CC=C[C@@H]1O2 (relative stereo) [Example 7, cis-6-Ethoxy-3a,8a-dihydro-3H-8-oxacyclopenta[a]indene-5-ol] | 0.11 mg/ear | 1700 nM | 27.3 mg/kg | 300 nM
13 | CC(Cc1ccc(O)c(O)c1)C(C)Cc1ccc(O)c(O)c1 (stereo not drawn) [NDGA, 1,4-bis(3,4-dihydroxyphenyl)-2,3-dimethylbutane, reference compound] | > 1.0 mg/ear |  | 29.2 mg/kg | 
